{
  "source": "paper PMC11437215",
  "about": "(Nature Communications, 2024)",
  "key": {"[1]": {"system": "crinosome subcellular fraction of β cells", "assay": "Crinosome peptidome by mass spectrometry", "set-up": "species or system NOD mice"}, "[2]": {"system": "crinosomes in pancreatic β cells", "assay": "Electron microscopy count of crinophagic granules", "format": "in vivo, NOD mice"}, "[3]": {"system": "9B9 T cell (G20-specific)", "assay": "Presentation of G20 by dispersed islet cells", "conditions": "chloroquine vs PBS; B:9–23 10 µM"}, "[4]": {"system": "insulin epitopes G20 and E21 in crinosome and DCG subcellular fractions", "assay": "Granule-based antigen presentation assay: crinosome", "format": "cell-based, NOD mice", "conditions": "chloroquine vs PBS"}, "[5]": {"system": "autoimmune diabetes in female NOD mice", "assay": "Diabetes development", "conditions": "chloroquine group, all PBS-treated mice became diabetic"}, "[6]": {"system": "9B9 T cell (G20-specific)", "assay": "Presentation of G20 by blood leukocytes after glucose challenge", "format": "cell-based, NOD mice"}, "[7]": {"system": "type 1 diabetes progression", "conditions": "autoantibody-positive (stage 1) T1D patients; cited from earlier work"}, "[8]": {"system": "tetramer-binding CD4+ T cells", "assay": "Flow cytometry of anergy markers CD73 and FR4 in tetramer-binding CD4+ T cells", "format": "cell-based, NOD and NOD.Ins2−/− mice", "conditions": "SLOs (Supplementary Fig. 9a)"}, "[9]": {"system": "tetramer-binding CD4+ T cells", "assay": "Flow cytometry of FOXP3 and CD44 in tetramer-binding CD4+ T cells", "format": "cell-based, NOD and NOD.Ins2−/− mice", "conditions": "NOD mice (Fig. 6b)"}, "[10]": {"system": "I-A^g7", "conditions": "Q-to-E conversion; cited from earlier work"}, "[11]": {"system": "CD4+ T cells in SLOs", "assay": "Quantification of tetramer-binding CD4+ T cells in SLOs", "format": "cell-based", "conditions": "SLOs of 6–8-week-old female NOD mice"}, "[12]": {"system": "CD4+ T cell clones BDC2.5 and BDC6.9", "conditions": "cited from earlier work"}, "[13]": {"system": "popliteal lymph node T cells (IFNγ, IL-2)", "assay": "ELISPOT recall after peptide immunization", "conditions": "immunized with B:9–23 (Fig. 7c)"}, "[14]": {"system": "9B9 (G20-specific) and IIT-3 (E21-specific) CD4+ T cell hybridomas", "format": "cell-based, mouse", "conditions": "C3.g7 APC pulsed with antigen; IL-2 (Supplementary Fig. 1a, b)"}, "[15]": {"system": "9B9, IIT-3, CP1- and CP2-specific CD4+ T cell hybridomas", "format": "cell-based, NOD and NOD.B16A mice", "conditions": "8 to 10-week-old female NOD mice"}, "[16]": {"system": "9B9, IIT-3, CP1- and CP2-specific CD4+ T cell hybridomas", "format": "cell-based, NOD and NOD.B16A mice", "conditions": "mTECs from NOD or NOD.B16A mice"}},
  "data": [
    {"molecule": "CCN(CC)CCCC(C)Nc1ccnc2cc(Cl)ccc12", "note": "(centres unmarked) [Chloroquine, chloroquine]", "values": [
      {"measurement": "overall HIP abundance in crinosomes", "setting": "[1]; chloroquine vs PBS", "value": "significant decrease"},
      {"measurement": "relative abundance of deamidated insulin C-peptides in the crinosome peptidome", "setting": "[1]; chloroquine vs PBS", "value": "significant reduction"},
      {"measurement": "number of peptides in the crinosome peptidome", "setting": "[1]; chloroquine vs PBS, 1.2 × 10^6 β cells per condition", "value": "significant reduction"},
      {"measurement": "HIPs identified in crinosomes", "setting": "[1]; mice given chloroquine, ten HIPs in PBS control", "value": "only one HIP"},
      {"measurement": "PTMs in the crinosome peptidome (methionine oxidation, deamidation, dehydration, phosphorylation, formylation)", "setting": "[1]; peptide-spectra matches, chloroquine vs PBS", "value": "reduced"},
      {"measurement": "change of crinosome-like vesicles in β cells", "setting": "[2]; male and female NOD mice, short-term chloroquine vs PBS", "value": "reduced by half"},
      {"measurement": "diminishing of crinophagic granules and associated peptide production", "setting": "[2]; young NOD mice (discussion summary)", "value": "about 50%"},
      {"measurement": "G20 presentation by dispersed islet cells pulsed with exogenous B:9–23 peptide", "setting": "[3]", "value": "no difference"},
      {"measurement": "effect on presentation of both epitopes in DCGs", "setting": "[4]", "value": "did not influence"},
      {"measurement": "reduction in the presentation level of both G20 and E21 in the crinosome fraction", "setting": "[4]; male and female NOD mice", "value": "~ 50%"},
      {"measurement": "mice remaining diabetes free by 35 weeks of age", "setting": "[5]", "value": "about 33%"},
      {"measurement": "presentation of G20 by blood leukocytes during pulse with exogenous B:9–23", "setting": "[6]; chloroquine vs PBS, B:9–23 10 µM", "value": "without affecting"},
      {"measurement": "duration of the effect in inhibiting G20 presentation", "setting": "[6]; preliminary experiments", "value": "about three days"}
    ]},
    {"molecule": "CCN(CCO)CCCC(C)Nc1ccnc2cc(Cl)ccc12", "note": "(centres unmarked) [hydroxychloroquine]", "values": [
      {"measurement": "autoantibody acquisition and titers of anti-insulin and anti-GAD antibodies", "setting": "[7]", "value": "reduced"},
      {"measurement": "progression to stage 2 T1D", "setting": "[7]", "value": "did not delay"}
    ]},
    {"molecule": "EALYLVCGE [E21]", "values": [
      {"measurement": "expression of CD73 and FR4 in the FOXP3−CD44hi subset of tetramer-binding T cells", "setting": "[8]", "value": "high expression of both CD73 and FR4"},
      {"measurement": "FOXP3 phenotype of tetramer-binding CD4+ single-positive thymocytes", "setting": "[9]", "value": "majority"}
    ]},
    {"molecule": "GDLQTLALEVARE [CP1d]", "values": [
      {"measurement": "binding affinity to I-A^g7 relative to native CP1", "setting": "[10]", "value": "enhanced the binding affinity"}
    ]},
    {"molecule": "ILSVHVATAASQDS [ZnT8]", "values": [
      {"measurement": "tetramer-binding cells per million CD4+ T cells", "setting": "[11]", "value": "less than 5 per million CD4^+ T cells"}
    ]},
    {"molecule": "LQTLAL-NAARD [6.9HIP]", "values": [
      {"measurement": "expression of CD73 and FR4 in the FOXP3−CD44hi subset of tetramer-binding T cells", "setting": "[8]", "value": "much less expression of CD73 and FR4"},
      {"measurement": "agonist activity on CD4+ T cell clones BDC2.5 and BDC6.9", "setting": "[12]", "value": "strong agonists"}
    ]},
    {"molecule": "LQTLAL-WSRMD [2.5HIP]", "values": [
      {"measurement": "expression of CD73 and FR4 in the FOXP3−CD44hi subset of tetramer-binding T cells", "setting": "[8]", "value": "much less expression of CD73 and FR4"},
      {"measurement": "agonist activity on CD4+ T cell clones BDC2.5 and BDC6.9", "setting": "[12]", "value": "strong agonists"}
    ]},
    {"molecule": "TEGEALYLVCGEGGS [Syn-E21]", "values": [
      {"measurement": "T cell responses upon recall in NOD.Ins2−/− mice", "setting": "[13]", "value": "significantly enhanced"},
      {"measurement": "T cell responses upon recall in WT NOD mice", "setting": "[13]", "value": "minimal"},
      {"measurement": "responses of the 9B9 (G20-specific) and IIT-3 (E21-specific) hybridomas", "setting": "[14]", "value": "exclusively reacted to their corresponding epitopes"}
    ]},
    {"molecule": "TEGVEALYLVCGGGS [Syn-G20]", "values": [
      {"measurement": "responses of the 9B9 (G20-specific) and IIT-3 (E21-specific) hybridomas", "setting": "[14]", "value": "exclusively reacted to their corresponding epitopes"}
    ]},
    {"molecule": "TQSPLLKRQLTSFIEKGQE [DBP]", "values": [
      {"measurement": "tetramer-binding cells per million CD4+ T cells", "setting": "[11]", "value": "less than 5 per million CD4^+ T cells"}
    ]},
    {"molecule": "VEALYLVCG [G20]", "values": [
      {"measurement": "expression of CD73 and FR4 in the FOXP3−CD44hi subset of tetramer-binding T cells", "setting": "[8]", "value": "much less expression of CD73 and FR4"},
      {"measurement": "FOXP3 phenotype of tetramer-binding CD4+ single-positive thymocytes", "setting": "[9]", "value": "mostly FOXP3^− conventional T cells"}
    ]},
    {"molecule": "insulin", "values": [
      {"measurement": "T cell responses upon recall in NOD.Ins2−/− mice", "setting": "[13]", "value": "significantly enhanced"},
      {"measurement": "T cell responses upon recall in WT NOD mice", "setting": "[13]", "value": "minimal"},
      {"measurement": "presentation of E21 and G20 by dispersed islets pulsed with antigen", "setting": "[15]", "value": "only presentation of E21, but not G20, was enhanced"},
      {"measurement": "responses of the 9B9 (G20-specific) and IIT-3 (E21-specific) hybridomas", "setting": "[14]", "value": "Only the IIT-3 but not the 9B9 T cell responded"},
      {"measurement": "presentation of E21 and G20 by mTECs pulsed with antigen", "setting": "[16]", "value": "strong presentation of E21, whereas presentation of G20 was minimal"}
    ]}
  ]
}
